Results published in article PMC5392334, “Discovery and characterization of a novel irreversible EGFR mutants selective and potent kinase inhibitor CHMFL-EGFR-26 with a distinct binding mode” (Oncotarget, 2017).

Columns and labels:
[1] = biological target: T1, RSK4(Kin.Dom.2-C-terminal) (Homo sapiens, UniProt Q9UK32); test: KinomeScan; assay type: binding; settings: read-out: % control
T1 construct: RSK4(Kin.Dom.2-C-terminal); purchased DiscoveRx KINOMEscan

[2] = biological target: T2, TEC (Homo sapiens, UniProt P42680); test: KinomeScan; assay type: binding; settings: read-out: % control
T2 construct: purchased DiscoveRx KINOMEscan

[3] = biological target: T3, AURKB (Homo sapiens, UniProt Q96GD4); test: KinomeScan; assay type: binding; settings: read-out: % control
T3 construct: purchased DiscoveRx KINOMEscan

[4] = biological target: T4, RPS6KA4(Kin.Dom.1-N-terminal) (Homo sapiens, UniProt O75676); test: KinomeScan; assay type: binding; settings: read-out: % control
T4 construct: RPS6KA4(Kin.Dom.1-N-terminal); purchased DiscoveRx KINOMEscan

[5] = biological target: T5, NEK3 (Homo sapiens, UniProt P51956); test: KinomeScan; assay type: binding; settings: read-out: % control
T5 construct: purchased DiscoveRx KINOMEscan

[6] = biological target: T6, NEK6 (Homo sapiens, UniProt Q9HC98); test: KinomeScan; assay type: binding; settings: read-out: % control
T6 construct: purchased DiscoveRx KINOMEscan

[7] = biological target: T7, MAP3K4 (Homo sapiens, UniProt Q9Y6R4); test: KinomeScan; assay type: binding; settings: read-out: % control
T7 construct: purchased DiscoveRx KINOMEscan

[8] = biological target: T8, PDGFRB (Homo sapiens, UniProt P09619); test: KinomeScan; assay type: binding; settings: read-out: % control
T8 construct: purchased DiscoveRx KINOMEscan

[9] = biological target: T9, FGFR1 (Homo sapiens, UniProt P11362); test: KinomeScan; assay type: binding; settings: read-out: % control
T9 construct: purchased DiscoveRx KINOMEscan

[10] = biological target: T10, PRKD2 (Homo sapiens, UniProt Q9BZL6); test: KinomeScan; assay type: binding; settings: read-out: % control
T10 construct: purchased DiscoveRx KINOMEscan
T10 sequence (Q9BZL6 whole entry): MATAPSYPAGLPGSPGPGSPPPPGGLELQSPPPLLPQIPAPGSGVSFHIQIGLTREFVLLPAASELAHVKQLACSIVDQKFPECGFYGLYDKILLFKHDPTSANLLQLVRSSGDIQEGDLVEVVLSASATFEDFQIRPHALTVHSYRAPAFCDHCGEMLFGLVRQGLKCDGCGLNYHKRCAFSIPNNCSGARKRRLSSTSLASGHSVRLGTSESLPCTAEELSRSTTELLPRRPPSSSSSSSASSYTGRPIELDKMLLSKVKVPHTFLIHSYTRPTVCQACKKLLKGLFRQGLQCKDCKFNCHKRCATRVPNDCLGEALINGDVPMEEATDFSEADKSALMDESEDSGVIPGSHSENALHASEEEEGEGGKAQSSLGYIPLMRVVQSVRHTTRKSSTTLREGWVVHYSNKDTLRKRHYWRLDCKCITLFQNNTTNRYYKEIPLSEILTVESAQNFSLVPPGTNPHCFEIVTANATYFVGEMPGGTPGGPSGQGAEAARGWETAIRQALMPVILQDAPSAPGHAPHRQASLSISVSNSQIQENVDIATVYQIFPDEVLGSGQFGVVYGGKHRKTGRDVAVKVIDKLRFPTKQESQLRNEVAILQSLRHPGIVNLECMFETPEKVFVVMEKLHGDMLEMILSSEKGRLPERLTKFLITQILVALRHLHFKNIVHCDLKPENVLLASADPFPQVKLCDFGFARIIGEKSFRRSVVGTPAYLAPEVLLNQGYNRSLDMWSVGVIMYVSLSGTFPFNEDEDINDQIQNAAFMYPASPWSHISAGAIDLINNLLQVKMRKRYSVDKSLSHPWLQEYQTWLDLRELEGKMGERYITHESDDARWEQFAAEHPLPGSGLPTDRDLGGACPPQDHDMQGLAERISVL

[11] = biological target: T11, ERK1 (Homo sapiens, UniProt P27361); test: KinomeScan; assay type: binding; settings: read-out: % control
T11 construct: purchased DiscoveRx KINOMEscan
T11 sequence (P27361 whole entry): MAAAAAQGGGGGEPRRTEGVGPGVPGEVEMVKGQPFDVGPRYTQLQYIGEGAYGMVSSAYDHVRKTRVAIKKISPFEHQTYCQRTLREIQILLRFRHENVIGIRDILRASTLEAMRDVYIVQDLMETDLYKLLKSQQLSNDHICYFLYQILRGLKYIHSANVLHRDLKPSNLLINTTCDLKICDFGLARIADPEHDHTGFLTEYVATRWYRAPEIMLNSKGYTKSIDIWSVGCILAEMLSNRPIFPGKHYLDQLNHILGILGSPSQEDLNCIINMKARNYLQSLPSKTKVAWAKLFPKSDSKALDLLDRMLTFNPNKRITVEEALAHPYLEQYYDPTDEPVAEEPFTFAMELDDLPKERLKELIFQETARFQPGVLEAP

[12] = biological target: T12, NEK7 (Homo sapiens, UniProt Q8TDX7); test: KinomeScan; assay type: binding; settings: read-out: % control
T12 construct: purchased DiscoveRx KINOMEscan
T12 sequence (Q8TDX7 whole entry): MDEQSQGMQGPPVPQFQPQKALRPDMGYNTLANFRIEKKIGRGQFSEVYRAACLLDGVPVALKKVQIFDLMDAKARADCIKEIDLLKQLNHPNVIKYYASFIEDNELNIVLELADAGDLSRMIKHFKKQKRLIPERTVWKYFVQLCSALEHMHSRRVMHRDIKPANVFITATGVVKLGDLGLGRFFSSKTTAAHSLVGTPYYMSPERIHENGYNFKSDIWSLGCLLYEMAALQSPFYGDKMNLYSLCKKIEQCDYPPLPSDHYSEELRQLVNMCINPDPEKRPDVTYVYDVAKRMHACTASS

[13] = biological target: T13, BTK (Homo sapiens, UniProt Q06187); test: KinomeScan; assay type: binding; settings: read-out: % control
T13 construct: purchased Invitrogen (SelectScreen service)

[14] = biological target: T14, MKNK2 (Homo sapiens, UniProt Q9HBH9); test: KinomeScan; assay type: binding; settings: read-out: % control
T14 construct: purchased DiscoveRx KINOMEscan
T14 sequence (Q9HBH9 whole entry): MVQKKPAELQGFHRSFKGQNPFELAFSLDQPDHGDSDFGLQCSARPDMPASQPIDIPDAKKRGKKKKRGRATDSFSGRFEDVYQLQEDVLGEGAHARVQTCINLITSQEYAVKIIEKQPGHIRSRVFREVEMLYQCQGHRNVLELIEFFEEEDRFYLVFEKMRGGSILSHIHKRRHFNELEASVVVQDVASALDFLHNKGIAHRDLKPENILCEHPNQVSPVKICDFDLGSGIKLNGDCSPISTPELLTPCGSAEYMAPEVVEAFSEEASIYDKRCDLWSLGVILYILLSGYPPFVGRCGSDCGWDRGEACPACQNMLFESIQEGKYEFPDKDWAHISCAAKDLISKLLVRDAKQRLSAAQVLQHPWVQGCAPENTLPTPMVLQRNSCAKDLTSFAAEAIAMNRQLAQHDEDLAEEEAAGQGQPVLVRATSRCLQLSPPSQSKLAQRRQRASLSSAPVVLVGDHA

[15] = biological target: T15, CSNK1G1 (Homo sapiens, UniProt Q9HCP0); test: KinomeScan; assay type: binding; settings: read-out: % control
T15 construct: purchased DiscoveRx KINOMEscan
T15 sequence (Q9HCP0 whole entry): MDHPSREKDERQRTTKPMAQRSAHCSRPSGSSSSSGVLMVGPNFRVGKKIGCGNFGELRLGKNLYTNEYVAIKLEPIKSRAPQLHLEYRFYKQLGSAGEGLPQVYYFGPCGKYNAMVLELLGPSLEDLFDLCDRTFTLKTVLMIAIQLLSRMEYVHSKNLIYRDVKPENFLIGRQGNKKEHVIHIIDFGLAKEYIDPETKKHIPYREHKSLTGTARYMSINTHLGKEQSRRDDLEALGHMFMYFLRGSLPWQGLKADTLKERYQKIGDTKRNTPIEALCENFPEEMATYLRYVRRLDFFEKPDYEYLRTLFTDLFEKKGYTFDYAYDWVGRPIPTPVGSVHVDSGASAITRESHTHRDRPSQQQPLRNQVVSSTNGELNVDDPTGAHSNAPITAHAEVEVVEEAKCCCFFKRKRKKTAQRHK

[16] = test system: BaF3-FL-EGFR-del19-T790M-C797S; test: Anti-proliferation, BaF3 isogenic cell lines (CellTiter-Glo); assay type: cell-based; settings: Mus musculus, 72 hours, triplet testing
[17] = biological target: T16, p38-gamma (Homo sapiens, UniProt P53778); test: KinomeScan; assay type: binding; settings: read-out: % control
T16 construct: purchased DiscoveRx KINOMEscan

[18] = biological target: T17, KIT(A829P) (Homo sapiens, UniProt P10721, A829P); test: KinomeScan; assay type: binding; settings: read-out: % control
T17 construct: purchased DiscoveRx KINOMEscan

[19] = biological target: T18, PRKR (Homo sapiens, UniProt P19525); test: KinomeScan; assay type: binding; settings: read-out: % control
T18 construct: purchased DiscoveRx KINOMEscan

[20] = biological target: T19, ABL1(T315I)-nonphosphorylated (Homo sapiens, UniProt P00519, T315I); test: KinomeScan; assay type: binding; settings: read-out: % control
T19 construct: purchased DiscoveRx KINOMEscan

[21] = biological target: T20, NIK (Homo sapiens, UniProt Q99558); test: KinomeScan; assay type: binding; settings: read-out: % control
T20 construct: purchased DiscoveRx KINOMEscan

[22] = biological target: T21, KIT(V559D,T670I) (Homo sapiens, UniProt P10721, T670I/V559D); test: KinomeScan; assay type: binding; settings: read-out: % control
T21 construct: purchased DiscoveRx KINOMEscan

[23] = biological target: T22, EGFR(L858R) (Homo sapiens, UniProt P00533, L858R); test: KinomeScan; assay type: binding; settings: read-out: % control
T22 construct: purchased DiscoveRx KINOMEscan

[24] = biological target: T23, ALK(C1156Y) (Homo sapiens, UniProt Q9UM73, C1156Y); test: KinomeScan; assay type: binding; settings: read-out: % control
T23 construct: purchased DiscoveRx KINOMEscan

[25] = biological target: T24, DYRK1A (Homo sapiens, UniProt Q13627); test: KinomeScan; assay type: binding; settings: read-out: % control
T24 construct: purchased DiscoveRx KINOMEscan

[26] = biological target: T25, EGFR(G719S) (Homo sapiens, UniProt P00533, G719S); test: KinomeScan; assay type: binding; settings: read-out: % control
T25 construct: purchased DiscoveRx KINOMEscan

[27] = biological target: T26, CAMK4 (Homo sapiens, UniProt Q16566); test: KinomeScan; assay type: binding; settings: read-out: % control
T26 construct: purchased DiscoveRx KINOMEscan

[28] = biological target: T27, RSK2(Kin.Dom.2-C-terminal) (Homo sapiens, UniProt P51812); test: KinomeScan; assay type: binding; settings: read-out: % control
T27 construct: RSK2(Kin.Dom.2-C-terminal); purchased DiscoveRx KINOMEscan

[29] = biological target: T28, ALK(L1196M) (Homo sapiens, UniProt Q9UM73, L1196M); test: KinomeScan; assay type: binding; settings: read-out: % control
T28 construct: purchased DiscoveRx KINOMEscan

[30] = biological target: T29, YANK3 (Homo sapiens, UniProt Q86UX6); test: KinomeScan; assay type: binding; settings: read-out: % control
T29 construct: purchased DiscoveRx KINOMEscan

[31] = biological target: T30, ABL1(F317L)-nonphosphorylated (Homo sapiens, UniProt P00519, F317L); test: KinomeScan; assay type: binding; settings: read-out: % control
T30 construct: purchased DiscoveRx KINOMEscan

[32] = biological target: T31, CHEK1 (Homo sapiens, UniProt O14757); test: KinomeScan; assay type: binding; settings: read-out: % control
T31 construct: purchased DiscoveRx KINOMEscan

[33] = biological target: T32, ABL2 (Homo sapiens, UniProt P42684); test: KinomeScan; assay type: binding; settings: read-out: % control
T32 construct: purchased DiscoveRx KINOMEscan

[34] = biological target: T33, NEK9 (Homo sapiens, UniProt Q8TD19); test: KinomeScan; assay type: binding; settings: read-out: % control
T33 construct: purchased DiscoveRx KINOMEscan
T33 sequence (Q8TD19 whole entry): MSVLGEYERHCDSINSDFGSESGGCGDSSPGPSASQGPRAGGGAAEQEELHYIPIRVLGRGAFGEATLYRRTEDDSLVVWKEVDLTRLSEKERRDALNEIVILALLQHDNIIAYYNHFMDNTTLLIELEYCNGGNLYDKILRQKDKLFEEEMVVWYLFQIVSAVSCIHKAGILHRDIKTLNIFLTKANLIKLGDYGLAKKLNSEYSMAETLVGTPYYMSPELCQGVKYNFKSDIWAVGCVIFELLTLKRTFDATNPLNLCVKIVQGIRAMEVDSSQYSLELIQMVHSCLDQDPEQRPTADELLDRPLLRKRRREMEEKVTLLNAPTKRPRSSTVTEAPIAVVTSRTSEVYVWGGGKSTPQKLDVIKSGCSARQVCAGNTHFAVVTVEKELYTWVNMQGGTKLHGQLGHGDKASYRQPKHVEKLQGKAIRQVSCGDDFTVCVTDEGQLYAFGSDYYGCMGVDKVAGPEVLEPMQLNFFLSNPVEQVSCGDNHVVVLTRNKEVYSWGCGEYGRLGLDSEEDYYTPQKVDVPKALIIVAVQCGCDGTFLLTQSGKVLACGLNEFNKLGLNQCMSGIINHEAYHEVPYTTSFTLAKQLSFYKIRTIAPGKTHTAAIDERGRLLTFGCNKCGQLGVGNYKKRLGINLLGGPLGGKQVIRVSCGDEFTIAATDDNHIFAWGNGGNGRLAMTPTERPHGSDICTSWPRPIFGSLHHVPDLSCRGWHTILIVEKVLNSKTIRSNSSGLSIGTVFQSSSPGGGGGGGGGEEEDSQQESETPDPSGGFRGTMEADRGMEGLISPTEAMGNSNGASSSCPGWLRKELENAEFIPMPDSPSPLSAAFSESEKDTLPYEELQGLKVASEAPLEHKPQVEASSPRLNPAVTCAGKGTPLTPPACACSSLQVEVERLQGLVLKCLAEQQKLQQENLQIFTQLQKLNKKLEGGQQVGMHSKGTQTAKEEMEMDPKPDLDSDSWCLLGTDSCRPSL

[35] = test system: BaF3-FL-EGFR-L858R-T790M; test: Anti-proliferation, BaF3 isogenic cell lines (CellTiter-Glo); assay type: cell-based; settings: Mus musculus, 72 hours, triplet testing
[36] = biological target: T34, CSF1R (Homo sapiens, UniProt P07333); test: KinomeScan; assay type: binding; settings: read-out: % control
T34 construct: purchased DiscoveRx KINOMEscan

[37] = biological target: T35, MKNK1 (Homo sapiens, UniProt Q9BUB5); test: KinomeScan; assay type: binding; settings: read-out: % control
T35 construct: purchased DiscoveRx KINOMEscan

[38] = biological target: T36, MEK6 (Homo sapiens, UniProt P52564); test: KinomeScan; assay type: binding; settings: read-out: % control
T36 construct: purchased DiscoveRx KINOMEscan

[39] = biological target: T37, PIK3CA(I800L) (Homo sapiens, UniProt P42336, I800L); test: KinomeScan; assay type: binding; settings: read-out: % control
T37 construct: purchased DiscoveRx KINOMEscan
T37 sequence (P42336 whole entry I800L): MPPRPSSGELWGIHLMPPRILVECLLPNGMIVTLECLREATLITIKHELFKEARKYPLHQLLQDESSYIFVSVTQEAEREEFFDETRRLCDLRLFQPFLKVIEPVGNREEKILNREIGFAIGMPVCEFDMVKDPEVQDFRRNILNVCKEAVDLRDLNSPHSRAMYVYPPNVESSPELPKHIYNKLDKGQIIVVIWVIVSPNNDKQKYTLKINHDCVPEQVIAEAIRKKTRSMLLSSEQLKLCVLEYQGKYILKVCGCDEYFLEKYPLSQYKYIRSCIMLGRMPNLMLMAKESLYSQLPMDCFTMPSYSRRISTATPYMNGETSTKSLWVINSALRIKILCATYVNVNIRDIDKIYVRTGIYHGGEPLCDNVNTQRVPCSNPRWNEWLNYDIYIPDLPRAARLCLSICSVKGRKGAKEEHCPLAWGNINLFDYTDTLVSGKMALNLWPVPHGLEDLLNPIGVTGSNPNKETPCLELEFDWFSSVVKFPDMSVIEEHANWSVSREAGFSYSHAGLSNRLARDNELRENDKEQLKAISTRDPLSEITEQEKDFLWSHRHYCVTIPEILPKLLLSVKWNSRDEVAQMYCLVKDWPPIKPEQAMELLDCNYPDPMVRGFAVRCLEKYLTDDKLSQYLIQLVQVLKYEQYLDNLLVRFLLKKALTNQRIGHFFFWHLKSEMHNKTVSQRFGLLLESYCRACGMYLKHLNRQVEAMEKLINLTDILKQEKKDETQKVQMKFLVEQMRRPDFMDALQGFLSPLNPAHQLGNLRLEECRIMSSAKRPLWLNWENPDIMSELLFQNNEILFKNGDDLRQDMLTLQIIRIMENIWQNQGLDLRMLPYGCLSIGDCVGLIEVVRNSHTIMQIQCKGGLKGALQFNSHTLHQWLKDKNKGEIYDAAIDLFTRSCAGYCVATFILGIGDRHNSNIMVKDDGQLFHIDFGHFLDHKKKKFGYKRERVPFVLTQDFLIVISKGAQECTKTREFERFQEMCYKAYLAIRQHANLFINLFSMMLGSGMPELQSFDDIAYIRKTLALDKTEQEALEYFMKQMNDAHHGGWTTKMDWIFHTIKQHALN

[40] = biological target: T38, MEK5 (Homo sapiens, UniProt Q13163); test: KinomeScan; assay type: binding; settings: read-out: % control
T38 construct: purchased DiscoveRx KINOMEscan

[41] = biological target: T39, RIOK2 (Homo sapiens, UniProt Q9BVS4); test: KinomeScan; assay type: binding; settings: read-out: % control
T39 construct: purchased DiscoveRx KINOMEscan
T39 sequence (Q9BVS4 whole entry): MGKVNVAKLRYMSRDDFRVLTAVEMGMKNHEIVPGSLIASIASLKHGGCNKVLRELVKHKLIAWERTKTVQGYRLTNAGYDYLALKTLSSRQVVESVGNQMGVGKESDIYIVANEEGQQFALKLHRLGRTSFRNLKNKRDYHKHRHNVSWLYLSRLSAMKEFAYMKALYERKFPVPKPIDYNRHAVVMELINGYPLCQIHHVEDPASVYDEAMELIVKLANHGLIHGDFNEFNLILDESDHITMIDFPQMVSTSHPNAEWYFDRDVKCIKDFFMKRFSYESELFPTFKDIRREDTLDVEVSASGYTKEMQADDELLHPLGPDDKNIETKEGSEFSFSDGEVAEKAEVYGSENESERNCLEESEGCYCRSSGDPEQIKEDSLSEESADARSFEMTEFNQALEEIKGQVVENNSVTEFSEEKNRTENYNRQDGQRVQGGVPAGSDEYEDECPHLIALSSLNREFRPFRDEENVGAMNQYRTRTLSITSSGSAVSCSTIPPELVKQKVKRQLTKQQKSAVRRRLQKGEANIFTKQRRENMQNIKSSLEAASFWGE

## C=CC(=O)N1CCC[C@@H](n2nc(-c3ccc(OCc4cccc(C)n4)c(Cl)c3)c3c(N)ncnc32)C1 [CHMFL-EGFR-26]
[1]
  remaining binding at 1 µM: 72%
[2]
  remaining binding at 1 µM: 13%
[3]
  remaining binding at 1 µM: 77%
[4]
  remaining binding at 1 µM: 11%
[5]
  remaining binding at 1 µM: 83%
[6]
  remaining binding at 1 µM: 100%
[7]
  remaining binding at 1 µM: 86%
[8]
  remaining binding at 1 µM: 94%
[9]
  remaining binding at 1 µM: 100%
[10]
  remaining binding at 1 µM: 81%
[11]
  remaining binding at 1 µM: 91%
[12]
  remaining binding at 1 µM: 90%
[13]
  remaining binding at 1 µM: 0.45%
[14]
  remaining binding at 1 µM: 91%
[15]
  remaining binding at 1 µM: 87%
[16]
  GI50: 2.1 µM
[17]
  remaining binding at 1 µM: 100%
[18]
  remaining binding at 1 µM: 100%
[19]
  remaining binding at 1 µM: 80%
[20]
  remaining binding at 1 µM: 100%
[21]
  remaining binding at 1 µM: 100%
[22]
  remaining binding at 1 µM: 100%
[23]
  remaining binding at 1 µM: 2.5%
[24]
  remaining binding at 1 µM: 100%
[25]
  remaining binding at 1 µM: 100%
[26]
  remaining binding at 1 µM: 18%
[27]
  remaining binding at 1 µM: 100%
[28]
  remaining binding at 1 µM: 100%
[29]
  remaining binding at 1 µM: 100%
[30]
  remaining binding at 1 µM: 90%
[31]
  remaining binding at 1 µM: 100%
[32]
  remaining binding at 1 µM: 100%
[33]
  remaining binding at 1 µM: 99%
[34]
  remaining binding at 1 µM: 94%
[35]
  GI50: 0.006 µM
[36]
  remaining binding at 1 µM: 98%
[37]
  remaining binding at 1 µM: 100%
[38]
  remaining binding at 1 µM: 95%
[39]
  remaining binding at 1 µM: 100%
[40]
  remaining binding at 1 µM: 0.1%
[41]
  remaining binding at 1 µM: 100%
